The values that follow come from US20090232838A1, “Ligands of melanocortin receptors” (priority 2005, published 2009).

The target in assay [1] is T1, hMC5-R (Homo sapiens, UniProt P33032).
T1 construct: expressed in transfected cells; host or cells: CHO-K1
Briefly: Radioligand binding assay, hMC5-R. The procedure: (§1) Cellular membranes used for the in vitro receptor binding assays were obtained from transgenic CHO-K1 cells stably expressing hMC-R receptor subtypes 1, 3, 4 or 5. […] The pellets were resuspended in the same buffer and centrifuged at 50,000 g for 10 minutes at approximately 4° C. The washed pellets containing the cellular membranes were stored at approximately −80° C.
(§2) Filters were washed three times with 50 mM Tris-HCl at p-H 7.4 at a temperature of approximately 0-4° C. and then assayed for radioactivity using a Packard Topcount® scintillation counter. Binding data were analyzed by computer-assisted non-linear regression analysis (XL fit; IDBS).

Assay [2] concerns the target T2, hMC3-R (Homo sapiens, UniProt P41968).
T2 construct: expressed in transfected cells; host or cells: CHO-K1
As to the kind of experiment: cyclic AMP bioassay, hMC3-R. The format is cell-based.

The target of assay [3] is T3, hMC1-R (Homo sapiens, UniProt Q01726).
T3 construct: expressed in transfected cells; host or cells: CHO-K1
As to the kind of experiment: cyclic AMP bioassay, hMC1-R. The format is cell-based.
Method: Intracellular cyclic AMP (cAMP) levels were determined by an electrochemiluminescence (ECL) assay (Meso Scale Discovery®, Gaithersburg, Md.; referred to hereinafter as MSD). […] Transgenic CHO-K1 cells stably expressing hMC receptor subtypes 1, 3, 4 or 5 were dispensed at a density of approximately 7,000 cells/well in 384-well Multi-Arrays plates (MSD) containing integrated carbon electrodes and coated with anti-CAMP antibody. Increasing concentrations of the test compounds were added and the cells were incubated for approximately 40 minutes at approximately 37° C. […] At the end of the second incubation period read buffer (Tris-buffered solution containing an ECL co-reactant and Triton X-100 at ph 7.8) was added and the cAMP levels in the cell lysates were immediately determined by ECL detection with a Sector Imager 6000 Reader® (MSD). Data were analyzed using a computer-assisted non-linear regression analysis (XL fit; IDBS) and reported as either an EC50 value or a Kb value.
The Kb value reflects the potency of an antagonist and is determined by Schild analysis. In brief, concentration-response curves of an agonist are carried out in the presence of increasing concentrations of an antagonist. […] It is calculated by extrapolating the line on a Schild plot to zero on the y-axis.

In assay [4] the target is T4, hMC4-R (Homo sapiens, UniProt P32245).
T4 construct: expressed in transfected cells; host or cells: CHO-K1
As to the kind of experiment: cyclic AMP bioassay, hMC4-R. The format is cell-based.

The target in assay [5] is T2, hMC3-R. Briefly: Radioligand binding assay, hMC3-R. The procedure: as §1, §2
For assay [6], the target named is T1, hMC5-R. As to the kind of experiment: cyclic AMP bioassay, hMC5-R. The format is cell-based.
In assay [7] the target is T4, hMC4-R. As to the kind of experiment: Radioligand binding assay, hMC4-R. As to the method: as §1, §2
Assay [8] concerns the target T3, hMC1-R. Briefly: Radioligand binding assay, hMC1-R. The procedure: as §1, §2

T3 sequence (Q01726 whole entry): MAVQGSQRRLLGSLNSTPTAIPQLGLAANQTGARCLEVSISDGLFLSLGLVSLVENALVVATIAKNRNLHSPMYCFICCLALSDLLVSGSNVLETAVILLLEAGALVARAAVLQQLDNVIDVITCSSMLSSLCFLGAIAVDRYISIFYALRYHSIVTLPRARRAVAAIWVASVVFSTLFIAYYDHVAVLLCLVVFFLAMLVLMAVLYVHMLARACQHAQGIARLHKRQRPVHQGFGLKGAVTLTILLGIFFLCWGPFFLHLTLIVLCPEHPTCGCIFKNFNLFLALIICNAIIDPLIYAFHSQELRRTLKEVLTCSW
T2 sequence (P41968 whole entry): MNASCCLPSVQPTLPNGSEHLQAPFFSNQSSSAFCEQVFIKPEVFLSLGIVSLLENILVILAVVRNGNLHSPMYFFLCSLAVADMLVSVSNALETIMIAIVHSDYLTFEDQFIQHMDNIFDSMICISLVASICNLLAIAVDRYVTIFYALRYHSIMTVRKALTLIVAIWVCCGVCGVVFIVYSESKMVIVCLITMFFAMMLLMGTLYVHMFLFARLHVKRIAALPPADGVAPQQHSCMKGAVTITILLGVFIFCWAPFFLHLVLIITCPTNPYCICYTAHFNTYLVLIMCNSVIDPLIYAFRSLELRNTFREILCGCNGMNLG
T1 sequence (P33032 whole entry): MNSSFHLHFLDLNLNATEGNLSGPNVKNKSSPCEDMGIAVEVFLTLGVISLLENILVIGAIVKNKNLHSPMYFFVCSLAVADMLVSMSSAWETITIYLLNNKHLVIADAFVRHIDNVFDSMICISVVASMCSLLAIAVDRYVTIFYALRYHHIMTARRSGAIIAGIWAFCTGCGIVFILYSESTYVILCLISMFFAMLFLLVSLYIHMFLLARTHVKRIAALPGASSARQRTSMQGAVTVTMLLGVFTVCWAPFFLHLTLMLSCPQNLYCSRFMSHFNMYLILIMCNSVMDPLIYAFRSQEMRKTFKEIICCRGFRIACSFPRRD
T4 sequence (P32245 whole entry): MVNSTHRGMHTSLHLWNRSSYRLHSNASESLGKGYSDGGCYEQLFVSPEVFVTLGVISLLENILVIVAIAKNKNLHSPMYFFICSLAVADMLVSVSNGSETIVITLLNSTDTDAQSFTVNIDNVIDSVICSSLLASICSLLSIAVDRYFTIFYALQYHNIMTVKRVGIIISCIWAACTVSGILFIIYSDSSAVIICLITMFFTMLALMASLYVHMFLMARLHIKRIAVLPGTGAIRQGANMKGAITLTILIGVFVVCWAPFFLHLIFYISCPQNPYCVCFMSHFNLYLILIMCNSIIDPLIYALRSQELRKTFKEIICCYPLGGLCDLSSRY

The Ki is the dissociation constant of the complex between target and ligand, obtained from inhibition or displacement. What is called EC50 is the midpoint of the concentration-response curve. Lower therefore signals an effect from little substance. As to `CC(=O)N[C@H]1CSSC[C@@H](C(=O)N2CCC[C@H]2C(=O)N2CCC[C@H]2C(=O)N[C@@H](CCCCN)C(=O)N[C@@H](CC(=O)O)C(=O)NCCC(=O)N[C@@H](Cc2ccc(O)cc2)C(=O)NCC(=O)N[C@@H](CCCNC(=N)N)C(=O)N[C@@H](CCCNC(=N)N)C(=O)N[C@@H](CCCCN)C(=O)N[C@@H](CCCNC(=N)N)C(=O)N[C@@H](CCCNC(=N)N)C(=O)N[C@@H](CCC(N)=O)C(=O)N[C@@H](CCCNC(=N)N)C(=O)N[C@@H](CCCNC(=N)N)C(=O)N[C@@H](CCCNC(=N)N)C(N)=O)NC(=O)[C@H](C)NC(=O)[C@H](Cc2ccc3ccccc3c2)NC(=O)[C@H](CCCNC(=N)N)NC(=O)[C@@H](Cc2ccc3ccccc3c2)NC(=O)[C@H](Cc2c[nH]cn2)NC(=O)[C@H](CCC(=O)O)NC1=O`, the Ki on hMC5-R [1] was determined as 15.3 nM; on hMC3-R [5] it was 1.12 nM. The Kb at hMC3-R [2] is 39.3 nM; at hMC4-R [4] it was 10.3 nM. Further, the results for the 50% effective concentration (EC50) at hMC1-R [3] and at hMC5-R [6] were 58.7 nM and 460 nM, respectively.
With `CCCC[C@H](NC(C)=O)C(=O)N[C@H]1CSSC[C@@H](C(=O)NCCC(=O)N[C@@H](CCCNC(=N)N)C(=O)N[C@@H](CCCNC(=N)N)C(=O)N[C@@H](CCCCN)C(=O)N[C@@H](CCCNC(=N)N)C(=O)N[C@@H](CCCNC(=N)N)C(=O)N[C@@H](CCC(N)=O)C(=O)N[C@@H](CCCNC(=N)N)C(=O)N[C@@H](CCCNC(=N)N)C(=O)N[C@@H](CCCNC(=N)N)C(N)=O)NC(=O)[C@H](Cc2c[nH]c3ccccc23)NC(=O)[C@H](CCCNC(=N)N)NC(=O)[C@@H](Cc2ccccc2)NC(=O)[C@H](Cc2c[nH]cn2)NC(=O)[C@@H](C)NC1=O`, the Ki on hMC5-R [1] was found to be 58.5 nM; on hMC4-R [7], 0.484 nM; at hMC1-R [8], 0.212 nM; on hMC3-R [5], 1.23 nM. Also, the EC50 on hMC3-R [2] worked out at 1.39 nM; at hMC1-R [3], 1.86 nM; at hMC4-R [4], 0.367 nM; on hMC5-R [6] it was 165 nM.
For `CCCC[C@H](NC(C)=O)C(=O)N[C@H]1CSSC[C@@H](C(=O)NCCC(=O)N[C@@H](CCCNC(=N)N)C(=O)N[C@@H](CCCCN)C(=O)N[C@@H](CCCNC(=N)N)C(=O)N[C@@H](CCCNC(=N)N)C(=O)N[C@@H](CCCNC(=N)N)C(=O)N[C@@H](CCC(N)=O)C(=O)N[C@@H](CCCNC(=N)N)C(=O)N[C@@H](CCCNC(=N)N)C(=O)N[C@@H](CCCNC(=N)N)C(N)=O)NC(=O)[C@H](Cc2c[nH]c3ccccc23)NC(=O)[C@H](CCCNC(=N)N)NC(=O)[C@@H](Cc2ccccc2)NC(=O)[C@H](Cc2c[nH]cn2)NC(=O)[C@@H](C)NC1=O`, the Ki at hMC5-R [1] stood at 47 nM; on hMC4-R [7], 0.468 nM; on hMC1-R [8], 0.778 nM; at hMC3-R [5], 1.22 nM. Besides, the EC50 on hMC3-R [2] came out at 1.61 nM; on hMC1-R [3], 2.06 nM; on hMC4-R [4], 0.394 nM; on hMC5-R [6], 199 nM.
